Measurements from US9279810B2, “Cell binding peptides for diagnosis and detection” (Affinergy, LLC, priority 2013, dated 2016).

Assays:
J82 bladder cancer cells = assay: Capture of cultured J82 tumor cells from urine with biotinylated cell binding peptide on streptavidin magnetic beads; format: cell-based, human; details: for J82 bladder tumor cells: cells captured on peptide-magnetic bead conjugate from 5 ml human urine, leukocyte:J82 mixture 12.5:1 to 20:1, unit not given; for Enrichment Factor: ratio J82:total leukocytes after capture divided by ratio before capture, urine
Method: (§1) A green fluorescent leukocyte preparation was prepared as follows. Red blood cells in 2 ml anti-coagulated human blood were lysed by the addition of 30 ml of a hypotonic medium and incubation for 10 min at room temperature. Intact cells and debris were recovered by centrifugation at 300×g. Pelleted material was resuspended with PBS/0.5% BSA/2 mM EDTA and filtered through a 100 micron nylon filter. Leukocytes (3×10^6) were labeled with 5 μM Cell Tracker Green CMFDA (LIFE TECHNOLOGIES/MOLECULAR PROBES) in EMEM growth medium without serum for 45 min. Excess dye was removed by centrifugation at 500×g for 5 min and washing with PBS/0.5% BSA/2 mM EDTA and cells were exposed to 10% serum containing medium for 45 min to allow dye conversion.
(§2) Red fluorescent J82 cells were prepared as follows: An 80% confluent culture of J82 bladder cancer cells was labeled with 5 μM Cell Tracker Red CMPTX (LIFE SCIENCES/MOLECULAR PROBES) in EMEM growth medium without serum for 90 min. Excess dye was removed by washing the flask with EMEM/10% FBS and cells were exposed to 10% serum containing medium for 1.5 h for dye conversion. The cells were then washed with PBS and released from the flask with 0.05% trypsin. Cells were recovered and trypsin removed by centrifugation at 500×g followed by washing in PBS/0.5% BSA/2 mM EDTA.
Biotinylated peptides SEQ ID NO: 1 and SEQ ID NO: 10 were synthesized with a C-terminal Peg10 group attached to a lysine as described in Example 1. The biotinylated peptides were conjugated to magnetic microbeads (MILTENYI) by incubating 400 μl of bead suspension in 20 μM peptide for 30 min on ice with occasional mixing. Unbound peptide was removed by binding the beads to a Miltenyi MS column placed in a magnetic field. Beads were washed with PBS/0.5% BSA/2 mM EDTA and peptide conjugated beads released by removing the Miltenyi MS column from the magnetic field. A mixture of green fluorescent leukocytes and red fluorescent J82 bladder cancer cells was variously prepared in ratios between 12.5:1 and 20:1. The cell mixture (725,000 cells total) was added to 5 ml human urine and then 250 μl of peptide-magnetic bead conjugate. The whole was incubated for 45 min at room temperature with rotation.
To capture cells the peptide-magnetic bead cell mixture was passed over a Miltenyi MS column pre-equilibrated with PBS/0.5% BSA/2 mM EDTA and held in a magnetic field. Unbound cells were washed out with PBS/0.5% BSA/2 mM EDTA and retained. Cells bound to the peptide-magnetic bead conjugate were released from the Miltenyi MS column by removing the column from the magnetic field. […] The data in FIG. 3 and Table 2 below show a 463-fold to 588-fold enrichment of J82 cells from leukocytes in urine. […]

blood leukocytes = assay: Capture of leukocytes from urine with biotinylated cell binding peptide on streptavidin magnetic beads (same test, obscuring cells); format: cell-based; details: cells captured on peptide-magnetic bead conjugate from 5 ml human urine; leukocyte:J82 mixture 12.5:1 to 20:1; unit not given
Method: as §1
as §2, with “EDTA. […]” for “EDTA.”

[1] = system: primary cells from voided urine; assay: Capture of primary cells from voided urine on peptide coated glass slide; format: cell-based, human; details: for Number of captured basal and intermediate cells/peptide coated area / Number of captured superficial and squamous cells/peptide coated area: cells from 40 mL voided urine, entire peptide coated area 2.67 cm^2, H&E, bright field; for peptide selectivity: preferential capture of cell type: primary cells from voided urine
Method: (§3) Peptides were synthesized in a conjugatable format for unidirectional conjugation to glass. Peptides were attached to glass through a covalent bond formed between the lysine on C-terminus of the peptide and an N-Hydroxysuccinimide (NHS) group on the glass. Briefly, microscope glass slides functionalized with NHS groups ((MICROSURFACES, Inc)) were incubated with peptide solution at 200 μM for 2 hours at 30° C., ˜75% RH. At the end of the incubation the slides were washed 3 times for 5 min in washing buffer (1×PBS, 0.05% Tween 20) and subsequently deactivated in deactivation solution (MICROSURFACES, Inc) for 30 min at 30° C., ˜75% RH to deactivate any remaining uncoupled NHS groups. Eventually slides were washed twice for 5 min in washing buffer prior to being blocked for 1 hour in blocking buffer (PBS, 0.5% BSA, 2 mM EDTA).
(§4) Microscope glass slides with discrete areas functionalized with peptide were used as diagnostic cell capture devices as shown in FIG. 1. Cells used were cultured cell lines established from human transitional bladder carcinomas (J82, ATCC HTB-1 and T24, ATCC HTB-4), cells isolated from voided urine of healthy donors (primary cells), a cultured cell line established from human thyroid carcinoma (SW579) or white blood cells (WBC) obtained from human whole blood by lysing red blood cells.
(§5) Cell suspension was prepared in cell capture buffer (PBS, 0.5% BSA, 2 mM EDTA, 0-200 mM glucose) and applied directly to a peptide functionalized slide in which peptide was attached to a glass slide using the N-Hydroxysuccinimide chemistry described in Example 4 with a pipetting device. The cells were incubated on the slide for 15 min and then drained by tipping the slide to the side. The slides were washed by dipping in wash buffer (PBS, 0.5% BSA, 2 mM EDTA) to wash away unbound cells. Slides were fixed in paraformaldehyde, dried, stained (H&E) and cover slipped for microscopic examination in a bright field. For fluorescent microscopy the cells were labeled with fluorescent dyes (CELLTRACKER Green or Red; LIFE TECHNOLOGIES, INC) prior to applying to the slide. Following the 15 min incubation the slides were washed, fixed, dried and mounted with a fluorescent mounting medium for microscopic examination in a dark field.
(§6) Selective capture of urothelial cells, J82, was achieved from a mixture of J82 and white blood cells (WBC) on a peptide coated glass slide using cell binding peptides of the present disclosure. In this Example, peptides were synthesized with a C-terminal Peg10 spacer followed by a lysine and conjugated to the glass slide according to Example 4.
In another experiment, primary cells from voided urine were selectively captured onto peptide coated glass slides. Specifically, cells were isolated from 40 mL of voided urine from a second morning void and applied to a glass slide with a discrete area coated with peptide. Cells were visualized by H&E staining and counted in a bright field. Results are presented in Table 3 below as a cell number per the entire peptide coated area (2.67 cm^2). […] The sample adequacy criterion for urine cytology is at least 15 well visualized basal or intermediate cells^1.

[2] = system: J82 urothelial cancer cells; assay: Selective capture of J82 urothelial cells from a mixture of J82 and white blood cells on peptide coated glass slide; format: cell-based, human
Method: as §3, §4, §5, §6
The cell binding peptides used in a first experiment were SEQ ID NO: 1, SEQ ID NO: 2, SEQ ID NO: 3, and SEQ ID NO: 4. […] Human WBC and J82 cells were labeled with different CELLTRACKER dyes, mixed at a 1 to 1 ratio and applied to a slide with discrete areas coated with peptides. The slide was washed of unbound cells and captured cells were counted under a fluorescent microscope. Data are presented in FIGS. 5A & 5B as cell number per microscope field at 100× magnification averaged from 10 fields. The slide area not coated with peptide was used as a negative control. Preferential capture of J82 urothelial cells was observed leading to depletion of WBC up to 85%. […] Thus the degree of WBC removal from the diagnostic sample can be controlled by using a peptide most suitable for the application. For example, in some circumstances the presence of some WBCs on the slide may provide valuable clinical information.
In another experiment, selective capture of urothelial cancer cells, J82, was achieved from a mixture of J82 and WBC on a peptide coated glass slide using peptides SEQ ID NO: 5, SEQ ID NO: 6, and SEQ ID NO: 7. […] Human WBC and J82 cells were labeled with different CELLTRACKER dyes, mixed at 7 to 1 ratio and applied to a slide with discrete areas coated with peptides. The slide was washed of unbound cells and captured cells were counted under a fluorescent microscope. […]

[3] = system: SW579 thyroid cancer cells; assay: Selective capture of SW579 thyroid cells from a mixture of SW579 and WBC on peptide coated glass slide; format: cell-based, human; details: WBC:SW579 1 to 1; compared with SEQ ID NO: 4 and SEQ ID NO: 1
Method: as §3
Microscope glass slides with discrete areas functionalized with peptide were used as diagnostic cell capture devices as shown in FIG. 1. […]
In a first experiment peptides SEQ ID NO: 1, SEQ ID NO: 2, SEQ ID NO: 3 and SEQ ID NO: 4 were tested and peptide SEQ ID NO: 10 was used as a positive control. […] The slide was washed of unbound cells and captured cells were counted under a fluorescent microscope. […]

thyroid cancer cells = assay: Selective capture of thyroid cancer cells spiked with whole blood on peptide coated slide; format: cell-based, human; details: H&E staining, 200x
Method: as §4
as §5, with “Following the 15 min incubation the slides were washed, fixed, dried and mounted with a fluorescent mounting medium for microscopic examination in a dark field.” left out

[4] = system: J82 urothelial cancer cells; assay: Selective capture of J82 urothelial cancer cells from voided urine spiked with whole blood on peptide coated slide; format: cell-based, human; details: voided urine spiked with whole blood and J82 cells; H&E staining, 100x
Method: as §4
as §5, with “The” for “Cell suspension was prepared in cell capture buffer (PBS, 0.5% BSA, 2 mM EDTA, 0-200 mM glucose) and applied directly to a peptide functionalized slide in which peptide was attached to a glass slide using the N-Hydroxysuccinimide chemistry described in Example 4 with a pipetting device. The”
In this Example, peptides were synthesized with a C-terminal Peg10 spacer followed by a lysine and conjugated to the glass slide according to Example 4.
In another experiment urothelial cancer cells from voided urine were selectively captured using peptide SEQ ID NO: 5. […]

[5] = J82 (100, 500 or 1000 cells) and WBC mixed 1:72, 15 min incubation
[6] = WBC:J82 1 to 1, compared with SEQ ID NO: 1 and SEQ ID NO: 4
[7] = WBC:J82 7 to 1, compared with SEQ ID NO: 7

Sequence: SFCPSNHDCIDWFIRSR [SEQ ID NO: 10, used as positive control in the thyroid test]
- J82 bladder tumor cells (J82 bladder cancer cells): 53.6
- Enrichment Factor (J82 bladder cancer cells): 588
- Total Blood Leukocytes (blood leukocytes): 0.09

Sequence: SSFGSDCSPWGCEWVPVSR [SEQ ID NO: 4]
- Number of captured basal and intermediate cells/peptide coated area [1]: 21 cells/peptide coated area
- Number of captured superficial and squamous cells/peptide coated area [1]: 6 cells/peptide coated area
- peptide selectivity: preferential capture of cell type [1]: deep urothelial cells

Sequence: SSFSNYDSPWGPNWSVISR [SEQ ID NO: 1]
- J82 bladder tumor cells (J82 bladder cancer cells): 48.2
- Enrichment Factor (J82 bladder cancer cells): 463
- Total Blood Leukocytes (blood leukocytes): 0.1

Sequence: SSIEDLPKDWPLFGWMSSR [SEQ ID NO: 2]
- depletion of WBCs from the input material [2, 5]: 86%
- reduction in WBCs relative to urothelial cells [2, 5]: 7.6 fold
- capture selectivity (WBC to J82 end ratio) [2, 6]: more selective
- capture selectivity (WBC to SW579 end ratio) [3]: more selective

Sequence: SSLESVKEPWGPGWIPVSR [SEQ ID NO: 3]
- capture selectivity (WBC to J82 end ratio) [2, 6]: more selective
- capture selectivity (WBC to SW579 end ratio) [3]: more selective
- selective capture of thyroid cancer cells, slide washed (thyroid cancer cells): Blood cells are washed away and thyroid cells retained

Sequence: SSVALSFQAVPYDFHSSR [SEQ ID NO: 5]
- capture selectivity (WBC to J82 end ratio) [2, 7]: more selective
- Number of captured basal and intermediate cells/peptide coated area [1]: 40 cells/peptide coated area
- Number of captured superficial and squamous cells/peptide coated area [1]: 19 cells/peptide coated area
- peptide selectivity: preferential capture of cell type [1]: deep urothelial cells
- selective capture of urothelial cancer cells, slide washed [4]: Blood cells are washed away and urothelial cells retained

Sequence: SSVQHAYQAWPGLGAYTSR [SEQ ID NO: 6]
- capture selectivity (WBC to J82 end ratio) [2, 7]: more selective
- Number of captured basal and intermediate cells/peptide coated area [1]: 5 cells/peptide coated area
- Number of captured superficial and squamous cells/peptide coated area [1]: 35 cells/peptide coated area
- peptide selectivity: preferential capture of cell type [1]: superficial and squamous cells
